Key:
[1] = tested on: eGFP-Tau[R406W]-infected primary cortical neurons; assay: Tau tangle formation and apoptosis in eGFP-Tau[R406W]-infected primary cortical neurons; type: cell-based, mice; settings: 50 μM Amisulpride for three days, DIV 10-13
From the text: White boxes and its corresponding magnifications show representative neurons with and without tau tangles. Arrow heads indicate cells that were counted as tangle-positive. B. Quantification of tau tangles. The number of tangle-positive neurons was counted in a confined area in 6 independent experiments and is represented as a fraction of total number of infected neurons. * indicates statistical significance of p<0.05; ** p<0.01 (N=6; total analyzed cells […], one-way ANOVA, followed by Dunnett's post hoc test). C. […] D. Representative images of DIV14 primary cortical WT neurons infected at DIV10 either with AAV constructs encoding eGFP (white) or eGFP-Tau[R406W] (green). […] Fluorescence from cleaved substrate of active caspase3/7 indicating apoptosis is shown. E. Quantification of apoptosis. Apoptotic cells showing caspase3/7 activity were counted in a confined area in 6 independent experiments and are represented as a fraction of total number of infected neurons.
A. Scheme showing experimental design. […] Neurons were analyzed at DIV 13. […] Arrowheads indicate cells that were counted as tangle-positive. […] Quantification of Tau tangles. The number of tangle-positive neurons was counted in a confined area in at least four independent experiments and is represented as a fraction of the total number of infected neurons. […] GAPDH expression was detected in a soluble fraction. […]

[2] = tested on: WT mice injected with AAV-eGFP-Tau[R406W]; assay: Tau hyperphosphorylation and recency test in WT mice after AAV-eGFP-Tau[R406W] injection into the prefrontal cortex; type: in vivo; settings: intraperitoneal, once daily for 16 days
Description: A. Scheme showing experimental design: AAV-eGFP-Tau[R406W] was injected stereotactically into the prefrontal cortex (PFC) of WT mice. After 3 weeks of recovery time, animals were intraperitoneally injected with either Vehicle or Amisulpride once daily for 16 days. B. Staining of prefrontal cortical slices of mice after AAV injection and treatment with phospho-specific Tau antibody T205. Representative overview image and magnification are shown. C. Quantification of the mean intensities of eGFP-Tau and pTau over the whole slice and calculation of the pTau/Tau ratio. Data are shown as mean+SEM (N=5). * indicates statistical significance of p<0.05 (one-tailed unpaired t-test). D. Results of test for temporal order recognition memory (recency test). Quantification of exploration time spent with less recent (L) and recent (R) object and discrimination index. Data are presented as mean+SEM (9≥N≥7). * indicates statistical significance of p<0.05, ** p<0.01; n.s., not statistically different (paired t-test and Wilcoxon signed rank test were applied to analyze exploration time, one-way ANOVA was applied to analyze the discrimination ratio).

5-HT7R = target: T1, 5-HT7R (Homo sapiens, UniProt P34969); assay: 5-HT7R-induced Tau aggregation in HEK293 Tau-BiFC cells; type: cell-based; settings: HEK293 Tau-BiFC cells transfected with CFP-5-HT7R; maximum intensity projections
T1 construct: HA (N); expressed in transfected cells; host or cells: N1E-115 (neuroblastoma cells)
T1 sequence (P34969 whole entry): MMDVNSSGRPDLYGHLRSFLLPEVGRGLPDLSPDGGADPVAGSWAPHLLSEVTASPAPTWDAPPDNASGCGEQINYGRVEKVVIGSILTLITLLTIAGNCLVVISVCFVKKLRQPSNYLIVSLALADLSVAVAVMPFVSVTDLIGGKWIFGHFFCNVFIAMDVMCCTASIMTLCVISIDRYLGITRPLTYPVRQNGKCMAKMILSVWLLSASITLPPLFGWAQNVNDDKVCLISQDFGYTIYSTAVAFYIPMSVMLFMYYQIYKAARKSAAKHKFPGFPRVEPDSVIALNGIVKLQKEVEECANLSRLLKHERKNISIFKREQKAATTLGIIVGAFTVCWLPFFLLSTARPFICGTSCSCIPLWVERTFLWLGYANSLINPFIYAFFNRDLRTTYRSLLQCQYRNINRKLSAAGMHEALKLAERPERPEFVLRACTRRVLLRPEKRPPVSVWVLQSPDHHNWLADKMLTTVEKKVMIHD
From the text: Signals are normalized to DMSO-treated pcDNA-transfected cells. Data are represented as means+SDs (N=3). *** indicates statistical significance of p<0.001, n.s. not statistically different (one-way ANOVA, followed by Turkey's post hoc test). […] Representative maximum intensity projections of HEK293 Tau-BiFC cells transfected with control vector (mCerulean, blue) or 5-HT7R (CFP-5-HT7R, blue) upon the indicated treatment. […] Membranes were probed with total Tau (Abcam) and GAPDH antibody (Millipore). Signals are normalized to DMSO-treated pcDNA-transfected cells. Data are represented as means+SDs (N=3). ** indicates statistical significance of p<0.01, *** p<0.001, n.s. not statistically different (one-way ANOVA, followed by Turkey's post hoc test). […] HEK293 Tau-BiFC cells were transfected with (HA)5-HT7R and treated with the indicated concentration of Amisulpride.

CCN1CCCC1CNC(=O)c1cc(S(=O)(=O)CC)c(N)cc1OC (centres unmarked) [Amisulpride]
5-HT7R-induced Tau tangle formation [1]: reduced
apoptosis (caspase3/7 activity) [1]: reduced
Tau[R406W]-induced memory impairments (recency test) [2]: ameliorates
Tau[R406W]-induced Tau hyperphosphorylation (pTau/Tau ratio, T205 staining) ([2]; prefrontal cortical slices): ameliorates
Tangles of Venus-Tau (VN-Tau) in 5-HT7R-transfected cells (5-HT7R): disappeared
